Where a name gives a salt, the structure may show the parent alone.

The subject of assay [1] is NCI-H146 cells (human small-cell lung cancer cell lines). In words: Cell-growth inhibition test: NCI-H146 cells. The class given is cell-based. The following applies: Homo sapiens, NCI-H146, read-out: Cell-Growth Inhibition Test: NCI-H146 Cells IC50 (nM). As to the method:
Under the following conditions, an in vitro cell-growth inhibition test was performed with respect to HEL cells (human acute myelocytic leukemia cell lines), NCI-H1417 cells (human small-cell lung cancer cell lines), and NCI-H146 cells (human small-cell lung cancer cell lines).
The cells with the compound of the present invention or with dimethylsulfoxide alone were cultured at 37° C. in a 5% carbon-dioxide-containing incubator for 5 days (HEL cells) or 10 days (NCI-H1417 cells and NCI-H146 cells). After culture, the plate was allowed to stand at room temperature for 30 minutes, and 100 μL of the supernatant was removed from each well to leave 100 μL of the cell culture solution. To each well containing the remaining 100 μL of the cell culture solution, the same amount of CellTiter-Glo 2.0 Assay (Promega, Cat #: G9242) was added. The microplate was shaken with a plate mixer for 1 minute and then allowed to stand in a dark place for 10 minutes. Thereafter, the luminescence intensity of viable cells in each well was measured using a microplate reader (PerkinElmer, EnSpire). […] Cell growth rate (%)=T/C×100 T: The luminescence intensity in a well to which the compound of the present invention was added (count per second) C: The luminescence intensity in a well to which dimethylsulfoxide alone was added (count per second)

Assay [2] deals with HEL cells (human acute myelocytic leukemia cell lines). In words: cells. The settings on record: read-out: Cell-Growth Inhibition Test: HEL Cells IC50 (nM).
Assay [3] concerns NCI-H1417 cells (human small-cell lung cancer cell lines). The assay is described as follows: cells. The settings on record: NCI-H1417, read-out: Cell-Growth Inhibition Test: NCI-H1417 Cells IC50 (nM).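 Note: growth of NCI-H1417 cells over 10 days at 37 °C, read as viable-cell luminescence by CellTiter-Glo 2.0, expressed as % of DMSO-only control wells.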

As for `Cn1ccc2cc(-c3ccc(C(=O)N4[C@@H]5CC[C@H]4C[C@H](N)C5)cc3-c3ccc(C#N)c(F)c3)ccc21` [Example 18], the IC50 in assay [1] was determined as 8.13 nM; in assay [2] it was 3.55 nM; in assay [3], 4.73 nM.
On to `COCCc1ccc(-c2ccc(C(=O)N3[C@@H]4CC[C@H]3C[C@@H](N)C4)cc2-c2ccc(C#N)c(F)c2)c(F)c1` [Example 22], for which the IC50 in assay [1] is 15 nM; in assay [2], 3.51 nM; in assay [3], 8.2 nM.
In the case of `Cn1ccc2cc(-c3ccc(C(=O)N4[C@@H]5CC[C@H]4C[C@H](N)C5)cc3-c3ccc(C#N)c(F)c3)c(F)cc21` [Example 23], the values for the half-maximal inhibitory concentration (IC50) in assay [1], in assay [2] and in assay [3] were 9.33 nM, 0.73 nM and 0.99 nM, respectively.
For `Cn1ncc2cc(-c3ccc(C(=O)N4[C@@H]5CC[C@H]4C[C@H](N)C5)cc3-c3ccc(C#N)c(F)c3)c(F)cc21` [Example 24], the IC50 was found to be 4.04 nM in assay [1], 3.56 nM in assay [2] and 0.97 nM in assay [3].
As for `CC(C)(O)Cc1ccc(-c2ccc(C(=O)N3[C@@H]4CC[C@H]3C[C@@H](N)C4)cc2-c2ccc(C#N)c(F)c2)c(F)c1` [Example 41], the IC50 in assay [1] amounted to 9.76 nM; in assay [2], 4.98 nM; in assay [3] it was 6.12 nM.
As to `Cn1ccc2cc(-c3ccc(C(=O)N4[C@@H]5CC[C@H]4C[C@@H](N)C5)cc3-c3ccc(C#N)c(F)c3)c(F)cc21` [Example 123], the values for the IC50 in assay [1], in assay [2] and in assay [3] were 1.39 nM, 1.39 nM and 3.57 nM, respectively.
Regarding `CC(C)(O)Cn1nnc2cc(-c3ccc(C(=O)N4[C@@H]5CC[C@H]4C[C@@H](N)C5)cc3-c3ccc(C#N)c(F)c3)c(F)c(F)c21` [Example 161], the IC50 in assay [1] came to 1.09 nM; in assay [2], 6.88 nM; in assay [3] it was 2.49 nM.
`Cc1nn(CC(C)(C)O)c2cc(F)c(-c3ccc(C(=O)N4[C@@H]5CC[C@H]4C[C@@H](N)C5)cc3-c3ccc(C#N)c(F)c3)cc12` [Example 181, 5′-((3-endo)-3-amino-8-azabicyclo[3.2.1]octane-8-carbonyl)-3-fluoro-2′-(6-fluoro-1-(2-hydroxy-2-methylpropyl)-3-methyl-1H-indazol-5-yl)-[1,1′-biphenyl]-4-carbonitrile]: the IC50 in assay [1] came out at 2.93 nM; in assay [2] it was 9.06 nM; in assay [3], 4.6 nM.
Take `CC(C)(O)Cn1ccc2cc(-c3ccc(C(=O)N4[C@@H]5CC[C@H]4C[C@@H](N)C5)cc3-c3ccc(C#N)c(F)c3)c(F)c(F)c21` [Example 183, 5′-((3-endo)-3-amino-8-azabicyclo[3.2.1]octane-8-carbonyl)-2′-(6,7-difluoro-1-(2-hydroxy-2-methylpropyl)-1H-indol-5-yl)-3-fluoro-[1,1′-biphenyl]-4-carbonitrile]: the IC50 in assay [1] was determined as 0.25 nM; in assay [2], 0.54 nM; in assay [3], 1.01 nM.
For the compound `COc1c(F)c(-c2ccc(C(=O)N3[C@@H]4CC[C@H]3C[C@@H](N)C4)cc2-c2ccc(C#N)c(F)c2)cc2cnn(CC(C)(C)O)c12` [Example 186, 5′-((3-endo)-3-amino-8-azabicyclo[3.2.1]octane-8-carbonyl)-3-fluoro-2′-(6-fluoro-1-(2-hydroxy-2-methylpropyl)-7-methoxy-1H-indazol-5-yl)-[1,1′-biphenyl]-4-carbonitrile], the half-maximal inhibitory concentration (IC50) is 3.21 nM in assay [1], 5.3 nM in assay [2] and 5.95 nM in assay [3].
Turning to `CC(C)(O)Cn1ncc2cc(-c3ccc(C(=O)N4[C@@H]5CC[C@H]4C[C@@H](N)C5)cc3-c3ccc(C#N)c(F)c3)c(F)c(F)c21` [Example 188, 5′-((3-endo)-3-amino-8-azabicyclo[3.2.1]octane-8-carbonyl)-2′-(6,7-difluoro-1-(2-hydroxy-2-methylpropyl)-1H-indazol-5-yl)-3-fluoro-[1,1′-biphenyl]-4-carbonitrile], the IC50 came to 1.58 nM in assay [1], 1.95 nM in assay [2] and 1.96 nM in assay [3].
As to `CC(C)(O)CCn1ncc2cc(-c3ccc(C(=O)N4[C@@H]5CC[C@H]4C[C@@H](N)C5)cc3-c3ccc(C#N)c(F)c3)c(F)cc21` [Example 194, 5′-((3-endo)-3-amino-8-azabicyclo[3.2.1]octane-8-carbonyl)-3-fluoro-2′-(6-fluoro-1-(3-hydroxy-3-methylbutyl)-1H-indazol-5-yl)-[1,1′-biphenyl]-4-carbonitrile], the IC50 was 11.3 nM in assay [1], 15.5 nM in assay [2] and 5.63 nM in assay [3].
On to `Cc1noc2cc(-c3ccc(C(=O)N4C5CCC4C(N)C5)cc3-c3ccc(C#N)c(F)c3)c(F)cc12` [Example 202, 5′-((1S,2S,4R)-rel-2-amino-7-azabicyclo[2.2.1]heptane-7-carbonyl)-3-fluoro-2′-(5-fluoro-3-methylbenzo[d]isoxazol-6-yl)-[1,1′-biphenyl]-4-carbonitrile-isomer-X], for which the IC50 in assay [1] was 0.73 nM; in assay [2], 0.24 nM; in assay [3] it was 0.62 nM.
Regarding `CCC(O)(CC)Cn1ncc2cc(-c3ccc(C(=O)N4[C@@H]5CC[C@H]4C[C@@H](N)C5)cc3-c3ccc(C#N)c(F)c3)c(F)cc21` [Example 205, 5′-((3-endo)-3-amino-8-azabicyclo[3.2.1]octane-8-carbonyl)-2′-(1-(2-ethyl-2-hydroxybutyl)-6-fluoro-1H-indazol-5-yl)-3-fluoro-[1,1′-biphenyl]-4-carbonitrile], the IC50 in assay [1] amounted to 15.1 nM; in assay [2], 4.95 nM; in assay [3], 6.25 nM.
On to `CCC(O)(CC)Cn1ncc2cc(-c3ccc(C(=O)N4C5CCC4C(N)C5)cc3-c3ccc(C#N)c(F)c3)c(F)cc21` [Example 206, 5′-((1S,2S,4R)-rel-2-amino-7-azabicyclo[2.2.1]heptane-7-carbonyl)-2′-(1-(2-ethyl-2-hydroxybutyl)-6-fluoro-1H-indazol-5-yl)-3-fluoro-[1,1′-biphenyl]-4-carbonitrile-isomer-X], for which the IC50 worked out at 1.09 nM in assay [1], 0.4 nM in assay [2] and 0.95 nM in assay [3].
For `CC(C)(O)Cn1nnc2cc(-c3ccc(C(=O)N4C5CCC4C(N)C5)cc3-c3ccc(C#N)c(F)c3)c(F)c(Cl)c21` [Example 209, 5′-((1S,2S,4R)-rel-2-amino-7-azabicyclo[2.2.1]heptane-7-carbonyl)-2′-(7-chloro-6-fluoro-1-(2-hydroxy-2-methylpropyl)-1H-benzo[d][1,2,3]triazol-5-yl)-3-fluoro-[1,1′-biphenyl]-4-carbonitrile-isomer-X] the same measures were 0.22 nM, 0.24 nM and 0.18 nM.
In the case of `N#Cc1ccc(-c2cc(C(=O)N3C4CCC3C(N)C4)ccc2-c2cc3nnn(CC4(O)CCC4)c3c(Cl)c2F)cc1F` [Example 257, 5′-((1S,2S,4R)-rel-2-amino-7-azabicyclo[2.2.1]heptane-7-carbonyl)-2′-(7-chloro-6-fluoro-1-((1-hydroxycyclobutyl)methyl)-1H-benzo[d][1,2,3]triazol-5-yl)-3-fluoro-[1,1′-biphenyl]-4-carbonitrile-isomer-X], the IC50 in assay [1] was 0.39 nM; in assay [2], 0.13 nM.
For `N#Cc1ccc(-c2cc(C(=O)N3[C@@H]4CC[C@H]3C[C@@H](N)C4)ccc2-c2cc3nnn(CC4(O)CCC4)c3c(C(F)F)c2F)cc1F` [Example 262, 5′-((3-endo)-3-amino-8-azabicyclo[3.2.1]octane-8-carbonyl)-2′-(7-(difluoromethyl)-6-fluoro-1-((1-hydroxycyclobutyl)methyl)-1H-benzo[d][1,2,3]triazol-5-yl)-3-fluoro-[1,1′-biphenyl]-4-carbonitrile] the same measures were 3.1 nM and 0.93 nM.
Consider `CC(C)(O)Cn1nnc2cc(-c3ccc(C(=O)N4C5CCC4C(N)C5)cc3-c3ccc(C#N)c(F)c3)c(F)c(Br)c21` [Example 273, 5′-((1S,2S,4R)-rel-2-amino-7-azabicyclo[2.2.1]heptane-7-carbonyl)-2′-(7-bromo-6-fluoro-1-(2-hydroxy-2-methylpropyl)-1H-benzo[d][1,2,3]triazol-5-yl)-3-fluoro-[1,1′-biphenyl]-4-carbonitrile-isomer-X], for which the IC50 turned out to be 0.63 nM in assay [1] and 0.27 nM in assay [2].
For `CC(C)(O)Cn1ncc2cc(-c3ccc(CN4C5CCC4C(N)C5)cc3-c3ccc(C#N)c(F)c3)c(F)cc21` [Example 287, 5′-(((1S,2S,4R)-rel-2-amino-7-azabicyclo[2.2.1]heptan-7-yl)methyl)-3-fluoro-2′-(6-fluoro-1-(2-hydroxy-2-methylpropyl)-1H-indazol-5-yl)-[1,1′-biphenyl]-4-carbonitrile-isomer-X dihydrochloride], the IC50 is 0.2 nM in assay [1] and 0.1 nM in assay [3].
Consider `CC(C)(O)Cc1ccc(-c2ccc(CN3C4CCC3C(N)C4)cc2-c2ccc(C#N)c(F)c2)c(F)c1` [Example 290, 5′-(((1S,2S,4R)-rel-2-amino-7-azabicyclo[2.2.1]heptan-7-yl)methyl)-2″,3-difluoro-4″-(2-hydroxy-2-methylpropyl)-[1,1′:2′,1″-terphenyl]-4-carbonitrile-isomer-X dihydrochloride], for which the IC50 amounted to 2.12 nM in assay [1] and 1.06 nM in assay [3].

For the origin of these results see patent publication US11479563B2, “Biphenyl compound or salt thereof” (TAIHO PHARMACEUTICAL CO., LTD., priority 2017, dated 2022).
